Results as given in doi:10.1101/2025.05.10.653276 (bioRxiv, 2025).
Like-named read-outs stand apart in the source and are kept apart here.

Key:
B. ovis [1] = assay: microbe, parasite or virus in culture; format: cell-based; conditions: Brucella ovis
B. ovis [2] = assay: microbe, parasite or virus in culture; format: cell-based, Brucella ovis; conditions: for IC50: Brucella ovis
in vitro = conditions: human
B. ovis [3] = format: cell-based, Brucella ovis
B. ovis [4] = format: cell-based, Brucella ovis; remark: listed apart in the source
B. abortus [5] = assay: microbe, parasite or virus in culture; format: cell-based, Brucella abortus; conditions: for IC50: Brucella abortus, 48 h, read-out: IC50, axenic B. abortus WT (Fig. S6B)
B. abortus [6] = assay: microbe, parasite or virus in culture; format: cell-based; conditions: Brucella abortus, THP-1, 48 h, read-out: IC50, intracellular B. abortus
B. abortus [7] = format: cell-based, Brucella abortus
THP-1 cells [8] = tested on: THP-1 cells
THP-1 cells [9] = format: cell-based, human
L-type Ca^2+ channels = conditions: read-out: Reported IC50 for L-type Ca^2+ channels; cited from earlier work
B. abortus [10] = format: cell-based, Brucella abortus; remark: listed apart in the source
B. ovis [11] = format: cell-based, Brucella ovis; remark: listed apart in the source
[12] = THP-1, read-out: Intracellular IC50
[13] = THP-1, 48 h, read-out: IC50, intracellular B. ovis growth
[14] = 48 h, read-out: IC50, axenic B. ovis growth

Structure (SMILES): N[C@@H]1C[C@H]1c1ccccc1 (racemic) [Tranylcypromine]
- IC50 (B. ovis [1]; [12]): > 50 µM
- IC50 (B. ovis [2]; read-out: Axenic IC50): > 50 µM
- CC50 (in vitro): > 50 µM

Structure (SMILES): O=C1CCc2ccc(OCCCCN3CCN(c4cccc(Cl)c4Cl)CC3)cc2N1 [Aripiprazole]
- CC50 (in vitro): 12 µM

Structure (SMILES): c1ccc(-c2ccc(C(c3ccccc3)n3ccnc3)cc2)cc1 (stereo not shown) [Bifonazole]
- IC50 (B. ovis [1]; [12]): 14 µM
- IC50 (B. ovis [2]; read-out: Axenic IC50): 4 µM
- CC50 (in vitro): > 50 µM

Structure (SMILES): C[C@H](CCC(=O)NCCC[N+](C)(C)CCCS(=O)(=O)[O-])[C@H]1CC[C@H]2[C@@H]3[C@H](O)C[C@@H]4C[C@H](O)CC[C@]4(C)[C@H]3C[C@H](O)[C@]12C [CHAPS]
- Sensitivity of WT B. ovis on TSA blood plates (B. ovis [3]): highly sensitive

Structure (SMILES): COCCOC(=O)C1=C(C)NC(C)=C(C(=O)OC/C=C/c2ccccc2)C1c1cccc([N+](=O)[O-])c1 (stereo not shown) [Cilnidipine]
- IC50 (B. ovis [1]; [13]): 2.5 µM
- IC50 (B. ovis [1]; [12]): 2 µM
- Concentrations inhibiting B. ovis growth in complex liquid broth (B. ovis [2]): above 5 μM
- IC50 (B. ovis [2]; [14]): 5.09 µM
- IC50 (B. ovis [2]; read-out: Axenic IC50): 5 µM
- Growth of WT B. ovis in liquid culture (kinetic growth assay) (B. ovis [4]): failed to grow
- Sensitivity of WT and ΔbepE B. abortus in axenic conditions (B. abortus [5]): insensitive
- IC50 (B. abortus [5]): > 25 µM
- IC50 (B. abortus [6]): 13.5 µM
- CFU recovery of ΔbepE B. abortus relative to wild-type in treated THP-1 cells (B. abortus [7]): significant reduction in CFU recovery
- Host cytotoxicity in B. ovis-infected THP-1 cells (THP-1 cells [8]): not due to host cytotoxicity
- CC50 (in vitro): > 50 µM

Structure (SMILES): OCCN(CCO)c1nc(N2CCCCC2)c2nc(N(CCO)CCO)nc(N3CCCCC3)c2n1 [Dipyridamole]
- IC50 (B. ovis [1]; [12]): > 50 µM
- IC50 (B. ovis [2]; read-out: Axenic IC50): > 50 µM
- CC50 (in vitro): 41 µM

Structure (SMILES): CCCCN(CCCC)CCC(O)c1cc2c(Cl)cc(Cl)cc2c2cc(C(F)(F)F)ccc12 (stereo not shown) [Halofantrine]
- IC50 (B. ovis [1]; [12]): > 50 µM
- IC50 (B. ovis [2]; read-out: Axenic IC50): 11 µM
- CC50 (in vitro): > 50 µM

Structure (SMILES): COc1ccc(CN2CCN(C(c3ccc(F)cc3)c3ccc(F)cc3)CC2)c(OC)c1OC [Lomerizine]
- IC50 (B. ovis [1]; [12]): 9 µM
- IC50 (B. ovis [2]; read-out: Axenic IC50): > 50 µM
- CC50 (in vitro): 50 µM

Structure (SMILES): COC(=O)C1=C(C)NC(C)=C(C(=O)OCCN(C)Cc2ccccc2)C1c1cccc([N+](=O)[O-])c1 (stereo not shown) [Nicardipine]
- IC50 (B. ovis [1]; [13]): 2.3 µM
- IC50 (B. ovis [1]; [12]): 2 µM
- Effect on terminal density of B. ovis in axenic culture (B. ovis [2]): did not affect the terminal density
- IC50 (B. ovis [2]; [14]): > 25 µM
- IC50 (B. ovis [2]; read-out: Axenic IC50): > 50 µM
- Increase in intracellular calcium and manganese levels (THP-1 cells [9]): 20–40%
- Growth of WT B. ovis in liquid culture (kinetic growth assay) (B. ovis [4]): modest lag
- Sensitivity of WT and ΔbepE B. abortus in axenic conditions (B. abortus [5]): insensitive
- IC50 (B. abortus [5]): > 25 µM
- IC50 (B. abortus [6]): 4.4 µM
- WT B. abortus CFUs recovered from treated THP-1 cells compared to untreated controls (B. abortus [7]): significantly fewer
- Host cytotoxicity in B. ovis-infected THP-1 cells (THP-1 cells [8]): not due to host cytotoxicity
- IC50 (L-type Ca^2+ channels): ~25 µM
- CC50 (in vitro): 49 µM

Structure (SMILES): CCOc1ccc(NC(C)=O)cc1 [Phenacetin]
- IC50 (B. ovis [1]; [12]): > 50 µM
- IC50 (B. ovis [2]; read-out: Axenic IC50): > 50 µM
- CC50 (in vitro): > 50 µM

Structure (SMILES): CC(=O)SCC(Cc1ccccc1)C(=O)NCC(=O)OCc1ccccc1 (stereo not shown) [Racecadotril]
- IC50 (B. ovis [1]; [12]): > 50 µM
- IC50 (B. ovis [2]; read-out: Axenic IC50): > 50 µM
- CC50 (in vitro): > 50 µM

Structure (SMILES): CCCCCCCCCCCCOS(=O)(=O)[O-].[Na+] [SDS, sodium dodecyl sulfate]
- Sensitivity of WT B. ovis on TSA blood plates (B. ovis [3]): highly sensitive

Structure (SMILES): C[C@H](CCC(=O)O)[C@H]1CC[C@H]2[C@@H]3CC[C@@H]4C[C@H](O)CC[C@]4(C)[C@H]3C[C@H](O)[C@]12C [deoxycholate]
- Sensitivity of WT B. ovis on TSA blood plates (B. ovis [3]): highly sensitive
- Growth of WT B. abortus on solid media (B. abortus [10]): modestly impaired WT growth
- Growth of ΔbepE B. abortus on solid media (B. abortus [10]): unable to grow
- IC50 (B. abortus strain WT) (B. abortus [5]): 0.067%
- IC50 (B. abortus strain ΔbepE glmS::bepDE) (B. abortus [5]): 0.052%
- IC50 (B. abortus strain ΔbepE) (B. abortus [5]): 0.021%

Structure (SMILES): COC(=O)C1=C(C)NC(C)=C(C(=O)OC)C1c1ccccc1[N+](=O)[O-] [nifedipine]
- Hit in B. ovis intracellular screen (B. ovis [11]): neither compound emerged as a hit

Structure (SMILES): COc1ccc(CCN(C)CCCC(C#N)(c2ccc(OC)c(OC)c2)C(C)C)cc1OC (stereo not shown) [verapamil]
- Hit in B. ovis intracellular screen (B. ovis [11]): neither compound emerged as a hit
